Earlier results, collected in US9358209B2, “Econazole composition and methods of treatment therewith” (Exeltis USA Dermatology, Inc., priority 2010, dated 2016).

Legend:
[1] = Liao et al., Yao Xue Xue Bao 28(1):22-7 (1993)
dermatophytes and yeasts = settings: most strains of E. floccosum, M. audouinii, M. canis, M. gypseum, T. mentagrophytes, T. rubrum, T. tonsurans, C. albicans, M. furfur

Row | SMILES | antifungal activity relative to other stereoisomer [1] | activity against dermatophytes and yeasts (dermatophytes and yeasts)
1 | Clc1ccc(CO[C@@H](Cn2ccnc2)c2ccc(Cl)cc2Cl)cc1 [(R)-(−)-econazole] | greater antifungal activity | 
2 | Clc1ccc(COC(Cn2ccnc2)c2ccc(Cl)cc2Cl)cc1 (centres unmarked) [Econazole nitrate] |  | has shown activity
